Test results published in ChEMBL document CHEMBL1208792, “A novel series of [3.2.1] azabicyclic biaryl ethers as alpha3beta4 and alpha6/4beta4 nicotinic receptor agonists” (Bioorg Med Chem Lett, 2010).

test system: not listed separately; assay: Displacement of [3H]epibatidine from alpha6/4beta4 nicotinic receptor expressed in human HEK293 cells; type: cell-based; settings: not given; call rule not given here

Row | Structure (SMILES) | Ki [nM]
1 | Cl.Fc1ccncc1-c1ccccc1O[C@H]1C[C@@H]2CNC[C@H]1C2 (racemic) | 1.33
2 | Cl.Oc1cncc(-c2ccccc2O[C@@H]2C[C@H]3CNC[C@@H]2C3)c1 | 7.16
3 | Cl.Nc1ccncc1-c1ccccc1O[C@H]1C[C@@H]2CNC[C@H]1C2 (racemic) | 2.05
4 | CC(C)S(=O)(=O)Nc1cncc(-c2ccccc2O[C@H]2C[C@@H]3CNC[C@H]2C3)c1.Cl (racemic) | 0.202
5 | CC(=O)Nc1cncc(-c2ccccc2O[C@H]2C[C@@H]3CNC[C@H]2C3)c1.Cl (racemic) | 17.1
6 | Cl.Oc1cncc(-c2ccccc2O[C@H]2C[C@@H]3CNC[C@H]2C3)c1 | 0.177
7 | COc1ccncc1-c1ccccc1O[C@H]1C[C@@H]2CNC[C@H]1C2.Cl (racemic) | 1.77

molecular target: Acetylcholine receptor; alpha1/beta1/delta/gamma (Homo sapiens, UniProt P02708+P07510+P11230+Q07001); assay: Binding affinity to alpha-1-beta-gamma-delta nicotinic receptor; type: protein-complex assay; settings: not given
Sequence (P02708 whole entry): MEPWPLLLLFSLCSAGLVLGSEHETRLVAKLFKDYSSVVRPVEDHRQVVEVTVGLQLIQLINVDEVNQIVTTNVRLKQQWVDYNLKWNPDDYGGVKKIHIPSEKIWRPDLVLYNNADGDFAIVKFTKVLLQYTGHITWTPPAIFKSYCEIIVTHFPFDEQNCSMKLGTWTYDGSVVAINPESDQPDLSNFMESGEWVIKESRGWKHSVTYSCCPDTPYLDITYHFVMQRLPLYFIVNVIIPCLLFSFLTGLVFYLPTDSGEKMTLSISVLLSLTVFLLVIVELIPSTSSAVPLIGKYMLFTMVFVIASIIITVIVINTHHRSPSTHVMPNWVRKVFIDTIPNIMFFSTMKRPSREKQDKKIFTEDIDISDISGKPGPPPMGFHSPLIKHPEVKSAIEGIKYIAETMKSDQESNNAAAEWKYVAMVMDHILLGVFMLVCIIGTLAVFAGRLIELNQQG
Sequence (P07510 whole entry): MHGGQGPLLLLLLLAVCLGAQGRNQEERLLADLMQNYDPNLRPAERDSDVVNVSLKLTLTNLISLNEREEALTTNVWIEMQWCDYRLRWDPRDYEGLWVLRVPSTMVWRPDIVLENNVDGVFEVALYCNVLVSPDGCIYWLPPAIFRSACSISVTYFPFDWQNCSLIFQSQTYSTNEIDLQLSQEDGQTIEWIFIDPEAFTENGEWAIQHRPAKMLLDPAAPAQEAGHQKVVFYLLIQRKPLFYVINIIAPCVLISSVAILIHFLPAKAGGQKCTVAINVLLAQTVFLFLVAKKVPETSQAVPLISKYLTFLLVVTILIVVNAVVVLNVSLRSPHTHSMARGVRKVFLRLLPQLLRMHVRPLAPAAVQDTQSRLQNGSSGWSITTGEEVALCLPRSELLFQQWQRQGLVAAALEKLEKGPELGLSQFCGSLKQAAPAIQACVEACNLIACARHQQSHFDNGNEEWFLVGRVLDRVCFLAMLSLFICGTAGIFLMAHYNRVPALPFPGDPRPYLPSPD
Sequence (P11230 whole entry): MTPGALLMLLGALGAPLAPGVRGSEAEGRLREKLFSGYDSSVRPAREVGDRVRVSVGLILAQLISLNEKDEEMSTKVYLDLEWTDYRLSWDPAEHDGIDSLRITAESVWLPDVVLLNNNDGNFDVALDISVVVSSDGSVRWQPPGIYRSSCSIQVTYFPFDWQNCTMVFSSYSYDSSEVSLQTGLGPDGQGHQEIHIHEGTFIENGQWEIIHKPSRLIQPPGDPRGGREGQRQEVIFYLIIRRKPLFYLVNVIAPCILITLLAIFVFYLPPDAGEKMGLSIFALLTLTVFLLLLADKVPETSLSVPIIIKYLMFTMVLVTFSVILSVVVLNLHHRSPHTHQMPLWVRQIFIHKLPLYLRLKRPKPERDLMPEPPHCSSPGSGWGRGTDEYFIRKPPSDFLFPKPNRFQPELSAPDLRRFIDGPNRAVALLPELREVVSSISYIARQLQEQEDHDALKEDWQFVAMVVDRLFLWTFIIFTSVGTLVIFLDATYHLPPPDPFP
Sequence (Q07001 whole entry): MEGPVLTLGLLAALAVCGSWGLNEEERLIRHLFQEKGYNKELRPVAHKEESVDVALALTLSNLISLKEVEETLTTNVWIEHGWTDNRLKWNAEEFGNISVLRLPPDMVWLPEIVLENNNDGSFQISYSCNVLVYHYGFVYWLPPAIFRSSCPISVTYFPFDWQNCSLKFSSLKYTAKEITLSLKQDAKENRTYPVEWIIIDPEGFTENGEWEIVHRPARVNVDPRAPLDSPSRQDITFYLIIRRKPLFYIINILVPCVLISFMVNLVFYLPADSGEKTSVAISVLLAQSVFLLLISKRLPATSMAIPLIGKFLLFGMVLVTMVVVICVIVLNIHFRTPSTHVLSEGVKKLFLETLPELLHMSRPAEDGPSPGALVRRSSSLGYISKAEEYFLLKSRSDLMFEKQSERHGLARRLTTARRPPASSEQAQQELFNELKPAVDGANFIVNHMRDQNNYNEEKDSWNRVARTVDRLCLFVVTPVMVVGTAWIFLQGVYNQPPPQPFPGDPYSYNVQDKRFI

Row | Structure (SMILES) | Ki [nM]
8 | Cl.Oc1cncc(-c2ccccc2O[C@@H]2C[C@H]3CNC[C@@H]2C3)c1 | 8320
9 | Cl.Nc1ccncc1-c1ccccc1O[C@H]1C[C@@H]2CNC[C@H]1C2 (racemic) | 4430
10 | CC(C)S(=O)(=O)Nc1cncc(-c2ccccc2O[C@H]2C[C@@H]3CNC[C@H]2C3)c1.Cl (racemic) | 4240
11 | CC(=O)Nc1cncc(-c2ccccc2O[C@H]2C[C@@H]3CNC[C@H]2C3)c1.Cl (racemic) | 530
12 | Cl.Oc1cncc(-c2ccccc2O[C@H]2C[C@@H]3CNC[C@H]2C3)c1 | 1680

test system: not listed separately; assay: Agonist activity at human alpha6/4beta4 nicotinic receptor expressed in human HEK cells assessed as intracellular calcium […] by FLIPR relative to control; type: functional, HEK293; settings: not given

Row | Structure (SMILES) | Efficacy [%]
13 | Cl.Oc1cncc(-c2ccccc2O[C@@H]2C[C@H]3CNC[C@@H]2C3)c1 | 70
14 | Cl.Nc1ccncc1-c1ccccc1O[C@H]1C[C@@H]2CNC[C@H]1C2 (racemic) | 61
15 | CC(C)S(=O)(=O)Nc1cncc(-c2ccccc2O[C@H]2C[C@@H]3CNC[C@H]2C3)c1.Cl (racemic) | 160
16 | CC(=O)Nc1cncc(-c2ccccc2O[C@H]2C[C@@H]3CNC[C@H]2C3)c1.Cl (racemic) | 51
17 | Cl.Oc1cncc(-c2ccccc2O[C@H]2C[C@@H]3CNC[C@H]2C3)c1 | 230
18 | COc1ccncc1-c1ccccc1O[C@H]1C[C@@H]2CNC[C@H]1C2.Cl (racemic) | 23

test system: not listed separately; assay: Agonist activity at human alpha6/4beta4 nicotinic receptor expressed in human HEK cells assessed as intracellular calcium […] by FLIPR; type: functional, cell-based, HEK293; settings: Homo sapiens, HEK293; read-out: EC50

Row | Structure (SMILES) | EC50 [nM]
19 | Cl.Fc1ccncc1-c1ccccc1O[C@H]1C[C@@H]2CNC[C@H]1C2 (racemic) | 625
20 | Cl.Nc1ccncc1-c1ccccc1O[C@H]1C[C@@H]2CNC[C@H]1C2 (racemic) | 265
21 | CC(C)S(=O)(=O)Nc1cncc(-c2ccccc2O[C@H]2C[C@@H]3CNC[C@H]2C3)c1.Cl (racemic) | 98.5
22 | CC(=O)Nc1cncc(-c2ccccc2O[C@H]2C[C@@H]3CNC[C@H]2C3)c1.Cl (racemic) | 35.4
23 | COc1ccncc1-c1ccccc1O[C@H]1C[C@@H]2CNC[C@H]1C2.Cl (racemic) | > 30000

same assay, conditions: hek293; read-out: EC50

Row | Structure (SMILES) | EC50 [nM]
24 | Cl.Oc1cncc(-c2ccccc2O[C@H]2C[C@@H]3CNC[C@H]2C3)c1 | 279

test system: MDCK; assay: (§1) Apparent permeability from apical to basolateral side of MDCK cells; type: ADME, cell-based, Canis lupus familiaris; settings: dog

Row | Structure (SMILES) | Papp [×10⁻⁶ cm/s]
25 | Cl.Oc1cncc(-c2ccccc2O[C@H]2C[C@@H]3CNC[C@H]2C3)c1 | 3.36

test system: not listed separately; assay: as §1; type: ADME, cell-based, Canis lupus familiaris; settings: dog

Row | Structure (SMILES) | Papp A→B [×10⁻⁶ cm/s]
26 | Cl.Fc1ccncc1-c1ccccc1O[C@H]1C[C@@H]2CNC[C@H]1C2 (racemic) | 13.3
27 | Cl.Oc1cncc(-c2ccccc2O[C@@H]2C[C@H]3CNC[C@@H]2C3)c1 | 2.66
28 | CC(C)S(=O)(=O)Nc1cncc(-c2ccccc2O[C@H]2C[C@@H]3CNC[C@H]2C3)c1.Cl (racemic) | 0.56

molecular target: Voltage-gated inwardly rectifying potassium channel KCNH2 (Homo sapiens, UniProt Q12809); assay: Displacement of [3H]dofetilide from human ERG expressed in HEK293 cells; type: cell-based; settings: hek293
Sequence (Q12809 whole entry): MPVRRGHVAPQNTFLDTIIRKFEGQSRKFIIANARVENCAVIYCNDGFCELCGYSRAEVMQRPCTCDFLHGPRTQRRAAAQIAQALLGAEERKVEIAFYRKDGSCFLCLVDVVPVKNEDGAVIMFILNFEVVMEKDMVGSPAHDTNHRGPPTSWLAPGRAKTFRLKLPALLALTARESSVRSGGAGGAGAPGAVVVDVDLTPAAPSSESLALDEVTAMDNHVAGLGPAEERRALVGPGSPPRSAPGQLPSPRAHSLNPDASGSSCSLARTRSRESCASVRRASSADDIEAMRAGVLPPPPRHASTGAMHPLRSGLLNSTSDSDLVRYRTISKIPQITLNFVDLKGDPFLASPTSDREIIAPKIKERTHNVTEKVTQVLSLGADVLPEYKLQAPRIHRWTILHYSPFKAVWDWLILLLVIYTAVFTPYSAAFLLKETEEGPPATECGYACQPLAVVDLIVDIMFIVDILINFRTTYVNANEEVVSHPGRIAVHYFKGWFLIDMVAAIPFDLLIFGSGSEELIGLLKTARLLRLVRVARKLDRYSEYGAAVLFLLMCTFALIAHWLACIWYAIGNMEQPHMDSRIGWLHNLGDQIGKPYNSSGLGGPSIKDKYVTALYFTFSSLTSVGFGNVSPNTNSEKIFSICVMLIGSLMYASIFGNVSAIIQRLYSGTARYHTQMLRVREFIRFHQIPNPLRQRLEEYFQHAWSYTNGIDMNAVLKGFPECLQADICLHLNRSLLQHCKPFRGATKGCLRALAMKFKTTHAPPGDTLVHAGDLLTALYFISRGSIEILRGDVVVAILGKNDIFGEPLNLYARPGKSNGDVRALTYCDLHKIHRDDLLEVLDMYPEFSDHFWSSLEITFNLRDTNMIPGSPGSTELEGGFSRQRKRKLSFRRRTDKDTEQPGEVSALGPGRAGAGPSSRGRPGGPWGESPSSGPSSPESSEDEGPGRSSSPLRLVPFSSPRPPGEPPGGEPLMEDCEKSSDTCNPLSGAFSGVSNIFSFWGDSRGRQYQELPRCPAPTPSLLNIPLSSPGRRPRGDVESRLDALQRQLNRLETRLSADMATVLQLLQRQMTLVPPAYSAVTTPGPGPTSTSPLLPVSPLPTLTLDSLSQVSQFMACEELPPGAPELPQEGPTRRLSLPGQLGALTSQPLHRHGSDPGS

Row | Structure (SMILES) | Ki
29 | Cl.Oc1cncc(-c2ccccc2O[C@@H]2C[C@H]3CNC[C@@H]2C3)c1 | Not Active
30 | CC(C)S(=O)(=O)Nc1cncc(-c2ccccc2O[C@H]2C[C@@H]3CNC[C@H]2C3)c1.Cl (racemic) | Not Active
31 | Cl.Oc1cncc(-c2ccccc2O[C@H]2C[C@@H]3CNC[C@H]2C3)c1 | Not Active

molecular target: Neuronal acetylcholine receptor; alpha4/beta2 (Homo sapiens, UniProt P17787+P43681); assay: Displacement of [3H]epibatidine from alpha4beta2 nicotinic receptor expressed in human HEK293 cells; type: cell-based; settings: read-out: Ki

Row | Structure (SMILES) | Ki [nM]
32 | Cl.Oc1cncc(-c2ccccc2O[C@@H]2C[C@H]3CNC[C@@H]2C3)c1 | 149
33 | Cl.Nc1ccncc1-c1ccccc1O[C@H]1C[C@@H]2CNC[C@H]1C2 (racemic) | > 1040
34 | CC(C)S(=O)(=O)Nc1cncc(-c2ccccc2O[C@H]2C[C@@H]3CNC[C@H]2C3)c1.Cl (racemic) | 745
35 | CC(=O)Nc1cncc(-c2ccccc2O[C@H]2C[C@@H]3CNC[C@H]2C3)c1.Cl (racemic) | > 615
36 | Cl.Oc1cncc(-c2ccccc2O[C@H]2C[C@@H]3CNC[C@H]2C3)c1 | 252
37 | COc1ccncc1-c1ccccc1O[C@H]1C[C@@H]2CNC[C@H]1C2.Cl (racemic) | 477

molecular target: T1, Neuronal acetylcholine receptor; alpha3/beta4 (Homo sapiens, UniProt P30926+P32297); assay: Agonist activity at alpha3beta4 nicotinic receptor expressed in human HEK cells assessed as intracellular calcium […] by FLIPR relative to control; type: functional, cell-based; settings: HEK293
T1 sequence (P30926 whole entry): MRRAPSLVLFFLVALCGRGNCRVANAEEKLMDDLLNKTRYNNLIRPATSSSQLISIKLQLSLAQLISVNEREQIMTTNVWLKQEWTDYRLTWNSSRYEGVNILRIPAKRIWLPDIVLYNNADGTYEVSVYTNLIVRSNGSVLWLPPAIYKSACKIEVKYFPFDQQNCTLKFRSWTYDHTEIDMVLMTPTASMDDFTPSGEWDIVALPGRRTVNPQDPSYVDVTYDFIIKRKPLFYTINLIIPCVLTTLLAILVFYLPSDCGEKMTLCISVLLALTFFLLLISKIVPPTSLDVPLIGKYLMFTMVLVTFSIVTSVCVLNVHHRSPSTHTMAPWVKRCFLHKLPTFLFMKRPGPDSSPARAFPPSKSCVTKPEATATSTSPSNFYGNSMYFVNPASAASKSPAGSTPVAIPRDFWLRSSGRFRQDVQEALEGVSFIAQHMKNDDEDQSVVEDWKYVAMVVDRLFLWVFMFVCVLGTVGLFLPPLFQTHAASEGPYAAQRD
T1 sequence (P32297 whole entry): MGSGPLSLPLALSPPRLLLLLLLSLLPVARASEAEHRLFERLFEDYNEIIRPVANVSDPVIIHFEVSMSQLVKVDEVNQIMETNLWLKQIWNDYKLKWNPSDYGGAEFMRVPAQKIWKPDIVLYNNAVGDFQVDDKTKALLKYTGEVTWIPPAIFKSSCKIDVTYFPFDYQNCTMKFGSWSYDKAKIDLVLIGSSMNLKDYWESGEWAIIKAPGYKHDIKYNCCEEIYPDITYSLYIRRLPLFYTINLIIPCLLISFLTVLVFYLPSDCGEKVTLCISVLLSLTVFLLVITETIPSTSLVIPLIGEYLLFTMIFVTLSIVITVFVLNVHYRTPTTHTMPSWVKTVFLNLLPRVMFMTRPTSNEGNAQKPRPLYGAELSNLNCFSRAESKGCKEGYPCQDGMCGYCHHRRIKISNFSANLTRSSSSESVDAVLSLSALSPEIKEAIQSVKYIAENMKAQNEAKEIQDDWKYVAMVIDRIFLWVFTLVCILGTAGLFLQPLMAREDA

Row | Structure (SMILES) | Efficacy [%]
38 | Cl.Fc1ccncc1-c1ccccc1O[C@H]1C[C@@H]2CNC[C@H]1C2 (racemic) | 65
39 | Cl.Oc1cncc(-c2ccccc2O[C@@H]2C[C@H]3CNC[C@@H]2C3)c1 | 52
40 | Cl.Nc1ccncc1-c1ccccc1O[C@H]1C[C@@H]2CNC[C@H]1C2 (racemic) | 97
41 | CC(C)S(=O)(=O)Nc1cncc(-c2ccccc2O[C@H]2C[C@@H]3CNC[C@H]2C3)c1.Cl (racemic) | 57
42 | CC(=O)Nc1cncc(-c2ccccc2O[C@H]2C[C@@H]3CNC[C@H]2C3)c1.Cl (racemic) | 100
43 | COc1ccncc1-c1ccccc1O[C@H]1C[C@@H]2CNC[C@H]1C2.Cl (racemic) | 49

molecular target: T1, Neuronal acetylcholine receptor; alpha3/beta4; assay: Agonist activity at alpha3beta4 nicotinic receptor expressed in human HEK cells assessed as intracellular calcium efflux by FLIPR; settings: not given

Row | Structure (SMILES) | EC50 [nM]
44 | Cl.Fc1ccncc1-c1ccccc1O[C@H]1C[C@@H]2CNC[C@H]1C2 (racemic) | 197
45 | Cl.Oc1cncc(-c2ccccc2O[C@@H]2C[C@H]3CNC[C@@H]2C3)c1 | 34.4
46 | Cl.Nc1ccncc1-c1ccccc1O[C@H]1C[C@@H]2CNC[C@H]1C2 (racemic) | 33.6
47 | CC(C)S(=O)(=O)Nc1cncc(-c2ccccc2O[C@H]2C[C@@H]3CNC[C@H]2C3)c1.Cl (racemic) | 0.16
48 | CC(=O)Nc1cncc(-c2ccccc2O[C@H]2C[C@@H]3CNC[C@H]2C3)c1.Cl (racemic) | 252
49 | Cl.Oc1cncc(-c2ccccc2O[C@H]2C[C@@H]3CNC[C@H]2C3)c1 | 2.99
50 | COc1ccncc1-c1ccccc1O[C@H]1C[C@@H]2CNC[C@H]1C2.Cl (racemic) | < 100

molecular target: T1, Neuronal acetylcholine receptor; alpha3/beta4; assay: Displacement of [3H]epibatidine from alpha3beta4 nicotinic receptor expressed in human HEK293 cells; type: cell-based; settings: not given

Row | Structure (SMILES) | Ki [nM]
51 | Cl.Fc1ccncc1-c1ccccc1O[C@H]1C[C@@H]2CNC[C@H]1C2 (racemic) | 0.856
52 | Cl.Oc1cncc(-c2ccccc2O[C@@H]2C[C@H]3CNC[C@@H]2C3)c1 | 2.02
53 | Cl.Nc1ccncc1-c1ccccc1O[C@H]1C[C@@H]2CNC[C@H]1C2 (racemic) | 0.957
54 | CC(C)S(=O)(=O)Nc1cncc(-c2ccccc2O[C@H]2C[C@@H]3CNC[C@H]2C3)c1.Cl (racemic) | 0.126
55 | CC(=O)Nc1cncc(-c2ccccc2O[C@H]2C[C@@H]3CNC[C@H]2C3)c1.Cl (racemic) | 9.53
56 | Cl.Oc1cncc(-c2ccccc2O[C@H]2C[C@@H]3CNC[C@H]2C3)c1 | 0.748
57 | COc1ccncc1-c1ccccc1O[C@H]1C[C@@H]2CNC[C@H]1C2.Cl (racemic) | 0.882

molecular target: Neuronal acetylcholine receptor subunit alpha-7 (Homo sapiens, UniProt P36544); assay: Displacement of [3H]epibatidine from alpha7 nicotinic receptor expressed in human HEK293 cells; type: cell-based; settings: not given
Sequence (P36544 whole entry): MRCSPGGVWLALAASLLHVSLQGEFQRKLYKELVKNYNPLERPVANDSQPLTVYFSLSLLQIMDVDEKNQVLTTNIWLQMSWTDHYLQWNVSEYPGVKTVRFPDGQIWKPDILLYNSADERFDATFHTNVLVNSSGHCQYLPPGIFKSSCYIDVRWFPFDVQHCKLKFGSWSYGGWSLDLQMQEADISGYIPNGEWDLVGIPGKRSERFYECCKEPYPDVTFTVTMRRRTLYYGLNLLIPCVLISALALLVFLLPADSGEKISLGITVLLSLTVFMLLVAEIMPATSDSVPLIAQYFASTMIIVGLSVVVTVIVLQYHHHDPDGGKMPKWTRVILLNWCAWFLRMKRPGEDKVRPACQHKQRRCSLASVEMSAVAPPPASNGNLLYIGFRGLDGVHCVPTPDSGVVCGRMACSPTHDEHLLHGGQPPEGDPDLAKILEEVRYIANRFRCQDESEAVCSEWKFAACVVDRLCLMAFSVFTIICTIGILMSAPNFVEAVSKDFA

Row | Structure (SMILES) | Ki [nM]
58 | Cl.Oc1cncc(-c2ccccc2O[C@@H]2C[C@H]3CNC[C@@H]2C3)c1 | > 15000
59 | CC(C)S(=O)(=O)Nc1cncc(-c2ccccc2O[C@H]2C[C@@H]3CNC[C@H]2C3)c1.Cl (racemic) | 14600
60 | CC(=O)Nc1cncc(-c2ccccc2O[C@H]2C[C@@H]3CNC[C@H]2C3)c1.Cl (racemic) | > 15000
61 | Cl.Oc1cncc(-c2ccccc2O[C@H]2C[C@@H]3CNC[C@H]2C3)c1 | > 13500

test system: MDCK; assay: (§2) Efflux ratio of permeability from basolateral to apical side over apical to basolateral side of MDCK cells expressing human MDR gene; type: ADME, cell-based, Canis lupus familiaris; settings: dog, MDCK

Row | Structure (SMILES) | Ratio
62 | Cl.Oc1cncc(-c2ccccc2O[C@H]2C[C@@H]3CNC[C@H]2C3)c1 | 5.02

test system: human MDR (P-glycoprotein); assay: as §2; type: ADME, cell-based, Canis lupus familiaris; settings: dog, MDCK-MDR1

Row | Structure (SMILES) | efflux ratio
63 | Cl.Fc1ccncc1-c1ccccc1O[C@H]1C[C@@H]2CNC[C@H]1C2 (racemic) | 1.26
64 | Cl.Oc1cncc(-c2ccccc2O[C@@H]2C[C@H]3CNC[C@@H]2C3)c1 | 3.5
65 | CC(C)S(=O)(=O)Nc1cncc(-c2ccccc2O[C@H]2C[C@@H]3CNC[C@H]2C3)c1.Cl (racemic) | 1.49
